Test results published in ChEMBL document CHEMBL4400547 (J Med Chem, 2019).
pEC50, pIC50: −log10 of the molar value. In brackets after ≈: the same amount, converted by molar mass. Activity calls are given as the source filed them. The rule behind the calls is not given here.

Legend:
physchem = conditions: buffer
Description: Aqueous kinetic solubility of the compound

[1] = target: T1, Serine/threonine-protein kinase/endoribonuclease IRE1 (Homo sapiens, UniProt O75460); assay: Inhibition of dephosphorylated IRE1alpha (G547 to L977 residues) (unknown origin) autophosphorylation at S724 after 25 mins in presence of ATP by dissociation-enhanced lanthanide fluorescence immunoassay
Target sequence in this assay (O75460 whole entry, the tested form may be a part): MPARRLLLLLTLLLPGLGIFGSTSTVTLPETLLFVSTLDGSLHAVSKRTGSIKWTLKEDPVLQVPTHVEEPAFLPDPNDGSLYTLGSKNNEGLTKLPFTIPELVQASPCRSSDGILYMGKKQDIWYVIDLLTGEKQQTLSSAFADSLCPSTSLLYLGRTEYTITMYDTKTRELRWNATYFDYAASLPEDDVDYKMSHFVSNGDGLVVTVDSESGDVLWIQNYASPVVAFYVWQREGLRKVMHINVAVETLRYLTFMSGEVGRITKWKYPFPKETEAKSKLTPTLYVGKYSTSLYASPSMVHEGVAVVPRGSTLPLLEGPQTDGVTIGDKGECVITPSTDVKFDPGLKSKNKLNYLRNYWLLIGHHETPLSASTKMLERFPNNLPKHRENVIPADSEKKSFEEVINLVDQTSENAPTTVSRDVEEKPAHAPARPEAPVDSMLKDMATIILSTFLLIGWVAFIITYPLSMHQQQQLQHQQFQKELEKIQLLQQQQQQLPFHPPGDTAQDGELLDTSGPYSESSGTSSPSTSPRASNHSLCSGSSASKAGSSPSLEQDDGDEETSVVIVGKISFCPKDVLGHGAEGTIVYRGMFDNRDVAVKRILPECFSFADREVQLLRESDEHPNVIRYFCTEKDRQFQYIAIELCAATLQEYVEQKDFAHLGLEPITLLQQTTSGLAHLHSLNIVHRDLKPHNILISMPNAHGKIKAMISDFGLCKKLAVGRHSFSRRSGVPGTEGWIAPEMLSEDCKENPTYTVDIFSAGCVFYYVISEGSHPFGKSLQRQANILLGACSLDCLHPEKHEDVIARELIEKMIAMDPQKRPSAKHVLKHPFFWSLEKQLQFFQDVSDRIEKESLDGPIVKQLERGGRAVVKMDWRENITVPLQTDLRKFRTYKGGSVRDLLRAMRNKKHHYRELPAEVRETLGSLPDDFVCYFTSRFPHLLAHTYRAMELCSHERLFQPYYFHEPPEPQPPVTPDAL

[2] = target: T1, Serine/threonine-protein kinase/endoribonuclease IRE1; assay: Displacement for LanthaScreen tracer from dephosphorylated IRE1alpha (G547 to L977 residues) (unknown origin) ATP binding site […] after 60 mins by FRET assay
Target sequence in this assay (O75460 whole entry, the tested form may be a part): as above

[3] = Distribution coefficient, log D of the compound at pH 7.4; type: physicochemical; conditions: octanol/water
[4] = target: T1, Serine/threonine-protein kinase/endoribonuclease IRE1; assay: Inhibition of tunicamycin-induced IRE1alpha (unknown origin) expressed in HEK293 cells assessed as reduction in IRE1alpha-dependent splicing of XBP1u-luciferase mRNA by luciferase reporter gene assay; type: cell-based
Target sequence in this assay (O75460 whole entry, the tested form may be a part): as above

[5] = target: Cyclin-dependent kinase 17 (Homo sapiens) (UniProt Q00537); assay: Inhibition of recombinant human GST-tagged PCTK2 expressed in baculovirus expression system at 1 uM by kinomescan assay relative to control
[6] = target: T1, Serine/threonine-protein kinase/endoribonuclease IRE1; assay: Inhibition of dephosphorylated IRE1alpha (G547 to L977 residues) (unknown origin) -dependent cleavage of FAM-labeled stem-loop RNA containing the XBP1 cleavage site preincubated for 30 mins followed by RNA XBP1 substrate addition and measured after 15 mins by FRET assay
Target sequence in this assay (O75460 whole entry, the tested form may be a part): as above

HEK293 = assay: cells; conditions: Homo sapiens
Description: Cytotoxicity against HEK293 cells co-expressing XBP1u-mRNA by luciferase reporter gene assay

[7] = target: T1, Serine/threonine-protein kinase/endoribonuclease IRE1; assay: Inhibition of thapsigargin-induced IRE1alpha (unknown origin) expressed in HEK293 cells assessed as reduction in IRE1alpha-dependent splicing of XBP1u-luciferase mRNA by luciferase reporter gene assay; type: cell-based
Target sequence in this assay (O75460 whole entry, the tested form may be a part): as above

[8] = target: T1, Serine/threonine-protein kinase/endoribonuclease IRE1; assay: Inhibition of tunicamycin-induced GFP-fused IRE1alpha (unknown origin) oligomerization expressed in HEK293 cells assessed as reduction in fluorescent foci formation after 5 hrs by fluorescence based assay; type: cell-based
Target sequence in this assay (O75460 whole entry, the tested form may be a part): as above

[9] = target: Receptor-type tyrosine-protein kinase FLT3 (Homo sapiens) (UniProt P36888); assay: Inhibition of recombinant human His-tagged FLT3 expressed in baculovirus expression system at 1 uM by kinomescan assay relative to control
[10] = target: Dual specificity protein kinase CLK2 (Homo sapiens) (UniProt P49760); assay: Inhibition of recombinant human GST-tagged CLK2 expressed in baculovirus expression system at 1 uM by kinomescan assay relative to control
[11] = target: Dual specificity protein kinase CLK1 (Homo sapiens) (UniProt P49759); assay: Inhibition of recombinant human GST-tagged CLK1 expressed in Escherichia coli at 1 uM by kinomescan assay relative to control
Dual specificity protein kinase CLK1 (Homo sapiens), sequence (P49759 whole entry, looked up): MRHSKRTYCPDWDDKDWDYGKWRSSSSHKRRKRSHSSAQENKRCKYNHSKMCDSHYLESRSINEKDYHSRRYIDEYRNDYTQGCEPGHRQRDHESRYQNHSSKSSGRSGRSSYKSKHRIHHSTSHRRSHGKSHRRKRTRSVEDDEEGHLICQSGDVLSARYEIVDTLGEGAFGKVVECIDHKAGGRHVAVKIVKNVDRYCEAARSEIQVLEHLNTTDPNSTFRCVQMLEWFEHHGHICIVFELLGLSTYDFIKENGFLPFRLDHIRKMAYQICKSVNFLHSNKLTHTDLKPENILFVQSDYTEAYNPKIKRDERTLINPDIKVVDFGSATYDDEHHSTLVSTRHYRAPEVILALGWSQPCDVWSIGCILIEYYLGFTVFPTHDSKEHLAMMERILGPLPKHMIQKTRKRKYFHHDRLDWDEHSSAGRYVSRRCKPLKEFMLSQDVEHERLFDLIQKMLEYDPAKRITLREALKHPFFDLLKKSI

[12] = tested on: Receptor-type tyrosine-protein kinase FLT3 (Homo sapiens), P36888 [K663Q]; assay: Inhibition of recombinant human His-tagged FLT3 K663Q mutant expressed in baculovirus expression system at 1 uM by kinomescan assay relative to control
[13] = tested on: Receptor-type tyrosine-protein kinase FLT3 (Homo sapiens), P36888 [UNDEFINED MUTATION]; assay: Inhibition of recombinant human His-tagged FLT3 ITD mutant expressed in baculovirus expression system at 1 uM by kinomescan assay relative to control
[14] = target: Mast/stem cell growth factor receptor Kit (Homo sapiens) (UniProt P10721); assay: Inhibition of recombinant human His-tagged KIT expressed in baculovirus expression system at 1 uM by kinomescan assay relative to control
[15] = target: Platelet-derived growth factor receptor beta (Homo sapiens) (UniProt P09619); assay: Inhibition of recombinant human His-tagged PDGFRB expressed in baculovirus expression system at 1 uM by kinomescan assay relative to control
[16] = tested on: Receptor-type tyrosine-protein kinase FLT3 (Homo sapiens), P36888 [N841I]; assay: Inhibition of recombinant human His-tagged FLT3 […] mutant expressed in baculovirus expression system at 1 uM by kinomescan assay relative to control
[17] = target: Homeodomain-interacting protein kinase 4 (Homo sapiens) (UniProt Q8NE63); assay: Inhibition of recombinant human His-tagged HIPK4 expressed in baculovirus expression system at 1 uM by kinomescan assay relative to control
[18] = target: Dual specificity tyrosine-phosphorylation-regulated kinase 1A (Homo sapiens) (UniProt Q13627); assay: Inhibition of recombinant full length human GST-tagged DYRK1A expressed in baculovirus expression system at 1 uM by kinomescan assay relative to control
[19] = tested on: Receptor-type tyrosine-protein kinase FLT3 (Homo sapiens), P36888 [D835Y]; assay: Inhibition of recombinant human His-tagged FLT3 D835Y mutant expressed in baculovirus expression system at 1 uM by kinomescan assay relative to control
[20] = tested on: Mast/stem cell growth factor receptor Kit (Homo sapiens), P10721 [V559D]; assay: Inhibition of recombinant human His-tagged KIT V559D mutant expressed in baculovirus expression system at 1 uM by kinomescan assay relative to control
Mast/stem cell growth factor receptor Kit (Homo sapiens), P10721 [V559D], sequence (P10721 whole entry V559D): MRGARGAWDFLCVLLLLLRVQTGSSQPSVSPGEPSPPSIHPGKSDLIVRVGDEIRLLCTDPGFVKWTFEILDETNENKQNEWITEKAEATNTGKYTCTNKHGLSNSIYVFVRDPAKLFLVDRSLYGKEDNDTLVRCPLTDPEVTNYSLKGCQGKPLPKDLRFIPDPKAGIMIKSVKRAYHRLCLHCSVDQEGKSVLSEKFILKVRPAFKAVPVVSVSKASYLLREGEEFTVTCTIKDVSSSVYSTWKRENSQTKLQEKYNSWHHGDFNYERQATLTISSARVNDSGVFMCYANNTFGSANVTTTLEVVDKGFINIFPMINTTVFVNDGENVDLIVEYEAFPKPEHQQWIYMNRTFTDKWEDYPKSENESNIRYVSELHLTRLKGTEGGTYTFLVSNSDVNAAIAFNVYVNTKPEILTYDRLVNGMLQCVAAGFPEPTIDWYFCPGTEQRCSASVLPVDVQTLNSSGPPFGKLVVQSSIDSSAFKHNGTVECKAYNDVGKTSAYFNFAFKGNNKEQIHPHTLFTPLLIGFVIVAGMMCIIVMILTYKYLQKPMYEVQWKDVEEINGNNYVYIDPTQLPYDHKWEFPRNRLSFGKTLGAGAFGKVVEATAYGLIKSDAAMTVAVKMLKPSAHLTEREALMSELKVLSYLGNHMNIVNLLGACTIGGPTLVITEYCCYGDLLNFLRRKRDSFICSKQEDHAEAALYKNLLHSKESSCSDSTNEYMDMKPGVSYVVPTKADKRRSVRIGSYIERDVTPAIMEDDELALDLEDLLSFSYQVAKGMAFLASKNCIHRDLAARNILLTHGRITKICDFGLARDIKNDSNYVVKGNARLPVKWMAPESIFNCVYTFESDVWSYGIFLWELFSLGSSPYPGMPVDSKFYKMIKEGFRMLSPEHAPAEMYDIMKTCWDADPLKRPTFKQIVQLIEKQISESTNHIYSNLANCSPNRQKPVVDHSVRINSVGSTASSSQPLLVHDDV

[21] = target: Dual specificity protein kinase CLK4 (Homo sapiens) (UniProt Q9HAZ1); assay: Inhibition of recombinant full length human GST-tagged CLK4 expressed in baculovirus expression system at 1 uM by kinomescan assay relative to control
Dual specificity protein kinase CLK4 (Homo sapiens), sequence (Q9HAZ1 whole entry, looked up): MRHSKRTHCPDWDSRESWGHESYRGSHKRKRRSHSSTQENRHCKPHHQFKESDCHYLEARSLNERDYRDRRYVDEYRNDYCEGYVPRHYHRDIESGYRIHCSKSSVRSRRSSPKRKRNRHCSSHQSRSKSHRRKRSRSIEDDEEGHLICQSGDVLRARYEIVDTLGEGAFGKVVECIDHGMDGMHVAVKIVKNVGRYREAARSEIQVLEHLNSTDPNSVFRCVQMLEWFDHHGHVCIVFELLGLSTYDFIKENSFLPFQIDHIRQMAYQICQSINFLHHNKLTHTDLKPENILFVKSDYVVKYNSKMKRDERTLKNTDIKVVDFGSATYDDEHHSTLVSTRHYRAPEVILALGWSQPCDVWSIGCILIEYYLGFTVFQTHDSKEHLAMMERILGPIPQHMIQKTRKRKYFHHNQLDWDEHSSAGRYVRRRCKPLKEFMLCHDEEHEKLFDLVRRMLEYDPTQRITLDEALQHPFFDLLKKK

[22] = target: Dual specificity tyrosine-phosphorylation-regulated kinase 1B (Homo sapiens) (UniProt Q9Y463); assay: Inhibition of recombinant full length human GST-tagged DYRK1B expressed in baculovirus expression system at 1 uM by kinomescan assay relative to control
Dual specificity tyrosine-phosphorylation-regulated kinase 1B (Homo sapiens), sequence (Q9Y463 whole entry, looked up): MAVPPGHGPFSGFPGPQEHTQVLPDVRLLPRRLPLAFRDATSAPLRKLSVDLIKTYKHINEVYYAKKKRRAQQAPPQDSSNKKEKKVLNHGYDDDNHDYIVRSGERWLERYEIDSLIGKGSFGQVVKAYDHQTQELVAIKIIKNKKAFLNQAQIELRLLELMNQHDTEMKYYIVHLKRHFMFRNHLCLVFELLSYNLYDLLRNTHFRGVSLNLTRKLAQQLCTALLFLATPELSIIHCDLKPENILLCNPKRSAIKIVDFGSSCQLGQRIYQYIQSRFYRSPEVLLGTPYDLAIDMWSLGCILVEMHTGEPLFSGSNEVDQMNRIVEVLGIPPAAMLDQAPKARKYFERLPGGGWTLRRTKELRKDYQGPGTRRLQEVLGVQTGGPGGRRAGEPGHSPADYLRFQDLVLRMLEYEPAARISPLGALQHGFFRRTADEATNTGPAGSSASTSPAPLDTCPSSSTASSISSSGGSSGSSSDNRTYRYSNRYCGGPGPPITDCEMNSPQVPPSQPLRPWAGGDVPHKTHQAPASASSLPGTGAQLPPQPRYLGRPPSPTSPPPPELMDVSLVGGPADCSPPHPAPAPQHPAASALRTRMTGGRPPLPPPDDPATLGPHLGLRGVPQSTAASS

[23] = tested on: Mast/stem cell growth factor receptor Kit (Homo sapiens), P10721 [L576P]; assay: Inhibition of recombinant human His-tagged KIT L576P mutant expressed in baculovirus expression system at 1 uM by kinomescan assay relative to control
Mast/stem cell growth factor receptor Kit (Homo sapiens), P10721 [L576P], sequence (P10721 whole entry L576P): as the sequence (P10721 whole entry V559D) above, with D559V, L576P counted along it

[24] = target: T1, Serine/threonine-protein kinase/endoribonuclease IRE1; assay: Inhibition of tunicamycin-induced IRE1alpha-dependent splicing of XBP1s-mRNA transcription in human H929 cells assessed as reduction in […] mRNA expression in at 0.5 to 10 uM by RT-qPCR analysis; type: cell-based
[25] = tested on: Tyrosine-protein kinase ABL1 (Homo sapiens), P00519 [F317L]; assay: Inhibition of phosphorylated recombinant human His-tagged ABL1 F317L mutant expressed in baculovirus expression system at 1 uM by kinomescan assay relative to control
[26] = target: Homeodomain-interacting protein kinase 1 (Homo sapiens) (UniProt Q86Z02); assay: Inhibition of recombinant human GST-tagged HIPK1 expressed in baculovirus expression system at 1 uM by kinomescan assay relative to control
[27] = target: Cyclin-G-associated kinase (Homo sapiens) (UniProt O14976); assay: Inhibition of recombinant human GST-tagged GAK (1 to 396 residues) expressed in insect cell expression system at 1 uM by kinomescan assay relative to control
[28] = target: Homeodomain-interacting protein kinase 2 (Homo sapiens) (UniProt Q9H2X6); assay: Inhibition of recombinant human N-terminal GST-tagged HIPK2 expressed in baculovirus expression system at 1 uM by kinomescan assay relative to control
[29] = tested on: Receptor-type tyrosine-protein kinase FLT3 (Homo sapiens), P36888 [R834Q]; assay: Inhibition of recombinant human His-tagged FLT3 R834Q mutant expressed in baculovirus expression system at 1 uM by kinomescan assay relative to control
[30] = target: Receptor-type tyrosine-protein kinase FLT3 (Homo sapiens) (UniProt P36888); assay: Inhibition of auto-inhibited recombinant human His-tagged FLT3 expressed in baculovirus expression system at 1 uM by kinomescan assay relative to control
[31] = target: Platelet-derived growth factor receptor alpha (Homo sapiens) (UniProt P16234); assay: Inhibition of recombinant human GST-tagged PDGFRA expressed in baculovirus expression system at 1 uM by kinomescan assay relative to control
[32] = tested on: Mast/stem cell growth factor receptor Kit (Homo sapiens), P10721 [V559D,T670I]; assay: Inhibition of recombinant human His-tagged KIT V559D/T670I double mutant expressed in baculovirus expression system at 1 uM by kinomescan assay relative to control
[33] = tested on: Receptor-type tyrosine-protein kinase FLT3 (Homo sapiens), P36888 [D835H]; assay: Inhibition of recombinant human His-tagged FLT3 D835H mutant expressed in baculovirus expression system at 1 uM by kinomescan assay relative to control
[34] = target: Myosin light chain kinase, smooth muscle (Homo sapiens) (UniProt Q15746); assay: Inhibition of recombinant human GST-tagged MLCK expressed in baculovirus expression system at 1 uM by kinomescan assay relative to control
[35] = tested on: Tyrosine-protein kinase ABL1 (Homo sapiens), P00519 [F317I]; assay: Inhibition of phosphorylated recombinant human His-tagged ABL1 F317I mutant expressed in baculovirus expression system at 1 uM by kinomescan assay relative to control
Homo sapiens = species on record: Homo sapiens; assay: Inhibition of recombinant human His-tagged FLT3 ITD/D835V double mutant expressed in baculovirus expression system at 1 uM by kinomescan assay relative to control
[36] = tested on: Mast/stem cell growth factor receptor Kit (Homo sapiens), P10721 [V559D,V654A]; assay: Inhibition of recombinant human His-tagged KIT V559D/V654A double mutant expressed in baculovirus expression system at 1 uM by kinomescan assay relative to control
[37] = tested on: Receptor-type tyrosine-protein kinase FLT3 (Homo sapiens), P36888 [D835V]; assay: Inhibition of recombinant human His-tagged FLT3 D835V mutant expressed in baculovirus expression system at 1 uM by kinomescan assay relative to control
[38] = target: Homeodomain-interacting protein kinase 3 (Homo sapiens) (UniProt Q9H422); assay: Inhibition of recombinant human His-tagged HIPK3 expressed in baculovirus expression system at 1 uM by kinomescan assay relative to control
[39] = target: Dual specificity tyrosine-phosphorylation-regulated kinase 2 (Homo sapiens) (UniProt Q92630); assay: Inhibition of recombinant human GST-tagged DYRK2 at 1 uM by kinomescan assay relative to control

`Clc1cc(NC2CCOCC2)c2ncc(-c3ccc4[nH]c(Nc5ccccc5)nc4c3)n2n1` gave a solubility kinetic (physchem) of 2.4 µM (≈ 1.1 µg/mL).
With `CN(c1ccccc1)c1nc2cc(-c3cnc4c(NCC5CC5)cc(Cl)nn34)ccc2[nH]1` the pIC50 [1] was < 5.00 and the pIC50 [2] was < 5.00.
`CN1CCC(Nc2cc(Cl)nn3c(-c4ccc5[nH]ncc5c4)cnc23)CC1` showed a logD [3] of 1.8 and a solubility kinetic (physchem) of 58 µM (≈ 22.1 µg/mL).
`CN1CCC(Nc2cc(Cl)nn3c(-c4ccc5[nH]c(Nc6ccccc6)nc5c4)cnc23)CC1` showed a logD [3] of 2.7 and a solubility kinetic (physchem) of 41 µM (≈ 19.4 µg/mL).
Compound `Clc1cc(NC2CCOCC2)c2ncc(-c3ccc4[nH]ncc4c3)n2n1` has a solubility kinetic (physchem) of 2.2 µM (≈ 0.811 µg/mL).
For `CN1CCC(CNc2cc(Cl)nn3c(-c4cc5nc(Nc6ccccc6)[nH]c5cc4F)cnc23)CC1`, the pIC50 [1] was 6.80, the pIC50 [4] was 6.15 and the inhibition [5] was > 90%. For the same compound, the pIC50 [2] was 6.57, the pIC50 [6] was 7.10 and the pEC50 (HEK293) was 5.05. The pIC50 [7] was 5.79 to 6.17 and the pIC50 [8] was 6.13.
In the case of `Cn1ncc2cc(-c3cnc4c(NCC5CC5)cc(Cl)nn34)ccc21`, the pIC50 [1] was < 5.00 and the pIC50 [2] was < 5.00.
For `Clc1cc(NCC2CC2)c2ncc(-c3ccc4[nH]c(Nc5ccccc5)nc4c3)n2n1`, the logD [3] was 4.1 and the solubility kinetic (physchem) was 2.9 µM (≈ 1.25 µg/mL).
In the case of `Clc1cc(NCC2CC2)c2ncc(-c3ccc4cn[nH]c4c3)n2n1`, the pIC50 [1] was < 5.00 and the pIC50 [2] was < 5.00.
With `Clc1cc(NCC2CC2)c2ncc(-c3ccc4[nH]ncc4c3)n2n1` the logD [3] was 3.4, the inhibition [9] was > 90% and the inhibition [10] was > 90%. For the same compound, the inhibition [11] was > 90%, the inhibition [12] was > 90% and the inhibition [13] was > 90%. For the same compound, the pIC50 [1] was 6.52, the inhibition [14] was > 90% and the pIC50 [4] was 5.38. For the same compound, the inhibition [15] was > 90%, the inhibition [16] was > 90% and the solubility kinetic (physchem) was 0.8 µM (≈ 0.271 µg/mL). The inhibition [17] was > 90%, the inhibition [5] was > 90% and the inhibition [18] was > 90%. The inhibition [19] was > 90%, the pIC50 [2] was 5.80 and the pIC50 [6] was 5.05. For the same compound, the pEC50 (HEK293) was < 4.31, the inhibition [20] was > 90% and the inhibition [21] was > 90%. For the same compound, the inhibition [22] was > 90% and the inhibition [23] was > 90%.
For `O=C(CN1CCOCC1)N[C@H]1CC[C@H](Nc2cc(Cl)nn3c(-c4ccc5[nH]ncc5c4)cnc23)CC1`, the inhibition [9] was > 90%, the inhibition [10] was > 90% and the inhibition [11] was > 90%. The inhibition [24] was “Active”, the inhibition [25] was > 90% and the inhibition [26] was > 90%. The inhibition [27] was > 90%, the inhibition [13] was > 90% and the pIC50 [1] was 6.62. For the same compound, the inhibition [14] was > 90%, the inhibition [28] was > 90% and the inhibition [29] was > 90%. For the same compound, the pIC50 [4] was 5.95, the inhibition [30] was > 90% and the inhibition [16] was > 90%. For the same compound, the inhibition [31] was > 90%, the inhibition [32] was > 90% and the inhibition [33] was > 90%. For the same compound, the inhibition [34] was > 90%, the inhibition [17] was > 90% and the inhibition [18] was > 90%. The pIC50 [2] was 7.06, the pIC50 [6] was 7.57 and the pEC50 (HEK293) was < 4.31. The inhibition [35] was > 90%, the inhibition [20] was > 90% and the inhibition (Homo sapiens) was > 90%. The inhibition [36] was > 90%, the inhibition [37] was > 90% and the pIC50 [7] was 5.79 to 6.17. The pIC50 [8] was 5.73, the inhibition [38] was > 90% and the inhibition [21] was > 90%. For the same compound, the inhibition [39] was > 90%, the inhibition [22] was > 90% and the inhibition [23] was > 90%.
For `Cn1c(Nc2ccccc2)nc2cc(-c3cnc4c(NCC5CC5)cc(Cl)nn34)ccc21`, the pIC50 [1] was < 5.00 and the pIC50 [2] was < 5.00.
For `CN(c1cc(Cl)nn2c(-c3ccc4[nH]ncc4c3)cnc12)[C@H]1CC[C@H](N)CC1`, the pIC50 [1] was < 5.00 and the pIC50 [2] was < 5.00.
